The values that follow come from PMC11026380, “Statine-based peptidomimetic compounds as inhibitors for SARS-CoV-2 main protease (SARS-CoV‑2 Mpro)” (Scientific Reports, 2024).

The subject of data set [1] is SARS-CoV-2 B.1 lineage isolate. The experiment in a line: in vitro. To be noted: human.
Data set [2] has as its system SARS-CoV-2 B.1 lineage isolate. The experiment in a line: microbe, parasite or virus in culture. The settings on record: Severe acute respiratory syndrome coronavirus 2, Calu-3, 24 h.
Data set [3] is described as follows: Cytotoxicity by methylene blue viability assay. To be noted: human.
Another data set concerns the target SARS-CoV-2 Mpro (Severe acute respiratory syndrome coronavirus 2, UniProt P0DTD1). The data set can be described thus: biochemical. To be noted: enzyme 1.5 μM, substrate 50 μM; for IC50 / IC50 (µM): FRET, 15 min preincubation at 37 °C; for Emax: read-out: Maximum inhibition (%), efficacy compared to negative control (vehicle, DMSO).
For data set [4], the system named is SARS-CoV-2 B.1 lineage isolate.
The nature of another data set: in vitro. The settings on record: human.
The test system of a further data set is Calu-3 cells. The data set can be described thus: Cytotoxicity by methylene blue viability assay. To be noted: Calu-3 cells.
The next data set deals with SARS-CoV-2. The settings on record: comparator values quoted in text; cited from earlier work.

SMILES strings stand for the structures. “Also recorded” adds a separate entry of the source.

For `COC(=O)[C@H](Cc1ccccc1)NC(=O)C[C@H](O)[C@H](Cc1ccccc1)NC(=O)OC(C)(C)C`, the melting point (usually the temperature of the solid-liquid transition) was in the range of 79 to 80 °C.

`COC(=O)[C@@H]1CCCN1C(=O)C[C@H](OC(C)=O)[C@H](Cc1ccccc1)NC(=O)OC(C)(C)C` came in with a melting point of 90 to 92 °C.

Consider `COC(=O)N[C@H](C(=O)N[C@@H](Cc1ccccc1)[C@@H](O)CN(Cc1ccc(-c2ccccn2)cc1)NC(=O)[C@@H](NC(=O)OC)C(C)(C)C)C(C)(C)C` [ATV, atazanavir, reference compound], for which, in data set [1], the selectivity ratio was more than 131. In addition, a half-maximal response in [2] (EC50) required 1.53 ± 0.3 µM. This compound also came in with a CC50 at 72 h in [3] of more than 200 µM.

Consider `COC(=O)[C@H](CO)NC(=O)C[C@H](O)[C@H](Cc1ccccc1)NC(=O)OC(C)(C)C` [Compound 7a], for which the IC50 (usually the concentration that inhibits the measured activity by half) against SARS-CoV-2 Mpro is more than 1000 µM. The Emax on SARS-CoV-2 Mpro (compounds 0.001 to 1000 μM) was 70%.

Compound `COC(=O)[C@H](Cc1ccc(O)cc1)NC(=O)C[C@H](O)[C@H](Cc1ccccc1)NC(=O)OC(C)(C)C` [Compound 7b] returned a melting point of 60 to 62 °C. Also, the IC50 at SARS-CoV-2 Mpro is more than 1000 µM. On SARS-CoV-2 Mpro (compounds 0.001 to 1000 μM), the Emax was 70%.

The compound `COC(=O)[C@@H](NC(=O)C[C@H](O)[C@H](Cc1ccccc1)NC(=O)OC(C)(C)C)[C@H](C)O` [Compound 7c] yielded a melting point of 124 to 125 °C. Besides, the Emax at SARS-CoV-2 Mpro (compounds 0.001 to 1000 μM) was less than 50%.

Take `COC(=O)[C@@H](O)CNC(=O)C[C@H](O)[C@H](Cc1ccccc1)NC(=O)OC(C)(C)C` [Compound 7d]: the melting point lay in the range of 65 to 66 °C. Also, on SARS-CoV-2 Mpro, the IC50 worked out at 0.924 µM and the “IC50 (µM)” value is given as “sub-micromolar range”. Further, at SARS-CoV-2 Mpro (compounds 0.001 to 1000 μM), the Emax is more than 70%. Also, the “Inhibition of SARS-CoV-2 replication” value in data set [4] is listed as “roughly 80%”. Besides, the selectivity ratio in data set [1] is more than 114. In “in vitro”, this compound came in with a CC50 at 72 h of more than 200 µM. The EC50 (in general, the concentration at which the effect is half-maximal) in [2] is 1.76 ± 0.3 µM.

With `COC(=O)[C@H](CC(C)C)NC(=O)C[C@H](O)[C@H](Cc1ccccc1)NC(=O)OC(C)(C)C` [Compound 7e], the Emax on SARS-CoV-2 Mpro (compounds 0.001 to 1000 μM) is less than 50%.

Turning to `COC(=O)[C@@H](NC(=O)CC(O)C(Cc1ccccc1)NC(=O)OC(C)(C)C)C(C)C` (some centres unmarked) [Compound 7h], the “Maximum inhibition (%)” value at SARS-CoV-2 Mpro (efficacy compared to negative control (vehicle, DMSO), compounds 0.001 to 1000 μM) is reported as less than 50%.

For `COC(=O)[C@H](COC(C)=O)NC(=O)C[C@H](OC(C)=O)[C@H](Cc1ccccc1)NC(=O)OC(C)(C)C` [Compound 8a], the melting point is 97 to 98 °C. On SARS-CoV-2 Mpro, this compound yielded an IC50 of 1000 µM. For the same compound, the Emax at SARS-CoV-2 Mpro (compounds 0.001 to 1000 μM) stood at 50%.

For the compound `COC(=O)[C@H](Cc1ccc(OC(C)=O)cc1)NC(=O)C[C@H](OC(C)=O)[C@H](Cc1ccccc1)NC(=O)OC(C)(C)C` [Compound 8b], the melting point lay within 88 to 89 °C. For the same compound, the IC50 against SARS-CoV-2 Mpro is more than 1000 µM. Besides, on SARS-CoV-2 Mpro (compounds 0.001 to 1000 μM), the Emax turned out to be 65%.

`COC(=O)[C@@H](NC(=O)C[C@H](OC(C)=O)[C@H](Cc1ccccc1)NC(=O)OC(C)(C)C)[C@H](C)OC(C)=O` [Compound 8c] came in with a melting point of 54 to 55 °C. The same compound displayed an IC50 against SARS-CoV-2 Mpro of 2.45 µM. Moreover, the Emax at SARS-CoV-2 Mpro (compounds 0.001 to 1000 μM) is not below 60%.

`COC(=O)[C@H](CC(C)C)NC(=O)C[C@H](OC(C)=O)[C@H](Cc1ccccc1)NC(=O)OC(C)(C)C` [Compound 8d] showed a melting point of 94 to 95 °C. The IC50 at SARS-CoV-2 Mpro stood at 0.391 µM. Moreover, the Emax at SARS-CoV-2 Mpro (compounds 0.001 to 1000 μM) was not below 60%.

Compound `COC(=O)[C@H](Cc1ccccc1)NC(=O)C[C@H](OC(C)=O)[C@H](Cc1ccccc1)NC(=O)OC(C)(C)C` [Compound 8e] registered a melting point of 89 to 91 °C. For the same compound, at SARS-CoV-2 Mpro, the IC50 was determined as 0.606 µM and the “IC50 (µM)” value is recorded as “sub-micromolar range”. At SARS-CoV-2 Mpro (compounds 0.001 to 1000 μM), the Emax is more than 70%. Besides, the “Inhibition of SARS-CoV-2 replication” value in data set [4] is on record as “roughly 80%”. Besides, the selectivity ratio in data set [1] was more than 112. The CC50 at 72 h in the data set “in vitro” was more than 200 µM. For the same compound, the EC50 in data set [2] was found to be 1.79 ± 0.1 µM.

With `COC(=O)[C@@H](NC(=O)C[C@H](OC(C)=O)[C@H](Cc1ccccc1)NC(=O)OC(C)(C)C)C(C)C` [Compound 8g], the IC50 against SARS-CoV-2 Mpro was more than 1000 µM. Also, on SARS-CoV-2 Mpro (compounds 0.001 to 1000 μM), the Emax is 66%.

As to `COC(=O)[C@H](CO)NC(=O)C[C@H](O)[C@@H](N)Cc1ccccc1.O=C(O)C(F)(F)F` [Compound 9a], the melting point fell in the range of 120 to 121 °C. At SARS-CoV-2 Mpro, this compound registered an IC50 of more than 1000 µM. In addition, at SARS-CoV-2 Mpro (compounds 0.001 to 1000 μM), the Emax turned out to be 57%.

In turn, `COC(=O)[C@H](Cc1ccc(O)cc1)NC(=O)C[C@H](O)[C@@H](N)Cc1ccccc1.O=C(O)C(F)(F)F` [Compound 9b] displayed a melting point of 98 to 99 °C. Besides, the IC50 on SARS-CoV-2 Mpro is more than 1000 µM. The Emax on SARS-CoV-2 Mpro (compounds 0.001 to 1000 μM) stood at 52%.

`COC(=O)[C@H](CC(C)C)NC(=O)C[C@H](O)[C@@H](N)Cc1ccccc1.O=C(O)C(F)(F)F` [Compound 9d] gave a melting point of 147 to 148 °C. Also, 778 µM corresponded to half-maximal inhibition at SARS-CoV-2 Mpro (IC50). Besides, the Emax on SARS-CoV-2 Mpro (compounds 0.001 to 1000 μM) came to 58%.

Turning to `COC(=O)[C@H](Cc1ccccc1)NC(=O)C[C@H](O)[C@@H](N)Cc1ccccc1` [Compound 9e], the IC50 on SARS-CoV-2 Mpro was more than 1000 µM. Further, on SARS-CoV-2 Mpro (compounds 0.001 to 1000 μM), the Emax stood at 51%.

Compound `COC(=O)[C@@H]1CCCN1C(=O)C[C@H](O)[C@@H](N)Cc1ccccc1` [Compound 9f] returned an IC50 at SARS-CoV-2 Mpro of more than 1000 µM. The Emax at SARS-CoV-2 Mpro (compounds 0.001 to 1000 μM) amounted to 68%.

Take `COC(=O)[C@@H](NC(=O)C[C@H](O)[C@@H](N)Cc1ccccc1)C(C)C.O=C(O)C(F)(F)F` [Compound 9g]: at SARS-CoV-2 Mpro, inhibition was half-maximal at 0.617 µM (IC50) and the “IC50 (µM)” value is “sub-micromolar range”. Further, the Emax on SARS-CoV-2 Mpro (compounds 0.001 to 1000 μM) was more than 70%. For the same compound, the “Inhibition of SARS-CoV-2 replication” value in [4] is “roughly 80%”. Moreover, the selectivity ratio in data set [1] was more than 132. In data set [2], this compound had an EC50 of 1.51 ± 0.2 µM. Moreover, the CC50 at 72 h in data set [3] was more than 200 µM. Further, the “Cytotoxicity (in words)” value with Calu-3 cells is “no cytotoxicity; also recorded: non-cytotoxic”.

The compound `CC(C)(C)OC(=O)N[C@@H](Cc1ccccc1)[C@@H](O)CC(=O)N[C@@H](Cc1ccccc1)C(=O)NN` [Compound 10] displayed an IC50 against SARS-CoV-2 Mpro of more than 1000 µM. Besides, at SARS-CoV-2 Mpro (compounds 0.001 to 1000 μM), the Emax amounted to 61%.

Regarding `CC(C)C(=O)OC[C@H]1O[C@@H](n2ccc(NO)nc2=O)[C@H](O)[C@@H]1O` [molnupiravir], the EC50 in the data set with SARS-CoV-2 is 1.97 µM.
